Results on eight compounds are retold here after ChEMBL document CHEMBL5465560, “Selectivity Literature for EUbOPEN Chemogenomic Library” (2024).

The target in assay [1] is T1, Protein kinase C iota type (Homo sapiens) (UniProt P41743).
T1 sequence (whole entry): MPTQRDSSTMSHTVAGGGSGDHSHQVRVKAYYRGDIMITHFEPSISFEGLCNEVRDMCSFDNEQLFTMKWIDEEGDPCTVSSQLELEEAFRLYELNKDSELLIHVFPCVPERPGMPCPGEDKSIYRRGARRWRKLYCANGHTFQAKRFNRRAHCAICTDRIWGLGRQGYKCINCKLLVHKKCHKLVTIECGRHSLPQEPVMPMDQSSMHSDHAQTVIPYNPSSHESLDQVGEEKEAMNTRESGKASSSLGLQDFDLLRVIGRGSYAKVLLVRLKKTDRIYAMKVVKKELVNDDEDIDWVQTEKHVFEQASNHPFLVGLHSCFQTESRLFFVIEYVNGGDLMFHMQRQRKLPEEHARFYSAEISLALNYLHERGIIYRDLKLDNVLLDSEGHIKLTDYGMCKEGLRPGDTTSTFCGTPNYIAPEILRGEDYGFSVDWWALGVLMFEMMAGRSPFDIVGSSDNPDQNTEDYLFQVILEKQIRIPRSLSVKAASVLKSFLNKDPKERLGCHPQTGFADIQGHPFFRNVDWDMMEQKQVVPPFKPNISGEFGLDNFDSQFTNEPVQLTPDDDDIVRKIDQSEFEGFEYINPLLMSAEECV
The assay can be described thus: Selectivity interaction (KinomeScan (DiscoverX)) EUB0000595a PRKCI. The following applies: at 10 µM.

The target in assay [2] is Vascular endothelial growth factor receptor 2 (Homo sapiens, UniProt P35968). The assay can be described thus: Selectivity interaction (KinomeScan (DiscoverX)) EUB0001619a KDR. The following applies: at 1 µM.
Vascular endothelial growth factor receptor 2, sequence (P35968 whole entry): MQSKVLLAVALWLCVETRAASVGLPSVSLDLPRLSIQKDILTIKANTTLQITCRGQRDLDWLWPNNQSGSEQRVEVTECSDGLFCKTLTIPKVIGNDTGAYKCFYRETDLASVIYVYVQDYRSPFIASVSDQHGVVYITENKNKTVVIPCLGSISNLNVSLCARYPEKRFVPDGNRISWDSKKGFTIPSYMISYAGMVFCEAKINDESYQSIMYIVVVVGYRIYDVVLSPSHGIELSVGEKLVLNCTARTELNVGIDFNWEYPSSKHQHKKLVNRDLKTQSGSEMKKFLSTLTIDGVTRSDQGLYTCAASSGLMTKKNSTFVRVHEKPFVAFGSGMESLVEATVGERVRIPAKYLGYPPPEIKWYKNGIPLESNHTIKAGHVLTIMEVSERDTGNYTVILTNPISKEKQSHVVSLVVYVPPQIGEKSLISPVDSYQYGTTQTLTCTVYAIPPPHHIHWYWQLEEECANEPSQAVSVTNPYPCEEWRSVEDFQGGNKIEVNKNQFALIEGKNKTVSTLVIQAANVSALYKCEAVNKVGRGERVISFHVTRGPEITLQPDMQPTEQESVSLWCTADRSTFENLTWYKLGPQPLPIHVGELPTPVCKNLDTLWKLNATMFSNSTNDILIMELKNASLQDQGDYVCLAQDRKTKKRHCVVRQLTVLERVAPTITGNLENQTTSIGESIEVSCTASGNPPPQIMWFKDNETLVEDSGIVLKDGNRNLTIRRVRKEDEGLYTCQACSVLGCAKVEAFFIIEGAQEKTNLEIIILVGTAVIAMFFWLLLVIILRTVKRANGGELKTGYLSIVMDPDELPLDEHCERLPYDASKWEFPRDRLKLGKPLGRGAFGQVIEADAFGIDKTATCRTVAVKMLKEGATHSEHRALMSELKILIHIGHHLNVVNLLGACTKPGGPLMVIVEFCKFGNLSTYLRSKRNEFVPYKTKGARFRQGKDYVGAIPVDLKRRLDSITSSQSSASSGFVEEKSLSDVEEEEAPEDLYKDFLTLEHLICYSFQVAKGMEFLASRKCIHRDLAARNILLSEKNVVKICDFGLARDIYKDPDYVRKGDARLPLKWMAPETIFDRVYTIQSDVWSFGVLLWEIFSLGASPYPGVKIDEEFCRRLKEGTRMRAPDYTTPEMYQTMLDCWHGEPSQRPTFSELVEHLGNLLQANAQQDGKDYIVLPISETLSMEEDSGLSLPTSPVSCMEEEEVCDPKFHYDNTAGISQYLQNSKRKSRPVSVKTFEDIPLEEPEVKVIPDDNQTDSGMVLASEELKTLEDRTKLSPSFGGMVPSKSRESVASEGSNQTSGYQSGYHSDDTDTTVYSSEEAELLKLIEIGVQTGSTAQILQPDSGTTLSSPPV
The target in assay [3] is T2, Peripheral plasma membrane protein CASK (Homo sapiens) (UniProt O14936).
T2 sequence (whole entry): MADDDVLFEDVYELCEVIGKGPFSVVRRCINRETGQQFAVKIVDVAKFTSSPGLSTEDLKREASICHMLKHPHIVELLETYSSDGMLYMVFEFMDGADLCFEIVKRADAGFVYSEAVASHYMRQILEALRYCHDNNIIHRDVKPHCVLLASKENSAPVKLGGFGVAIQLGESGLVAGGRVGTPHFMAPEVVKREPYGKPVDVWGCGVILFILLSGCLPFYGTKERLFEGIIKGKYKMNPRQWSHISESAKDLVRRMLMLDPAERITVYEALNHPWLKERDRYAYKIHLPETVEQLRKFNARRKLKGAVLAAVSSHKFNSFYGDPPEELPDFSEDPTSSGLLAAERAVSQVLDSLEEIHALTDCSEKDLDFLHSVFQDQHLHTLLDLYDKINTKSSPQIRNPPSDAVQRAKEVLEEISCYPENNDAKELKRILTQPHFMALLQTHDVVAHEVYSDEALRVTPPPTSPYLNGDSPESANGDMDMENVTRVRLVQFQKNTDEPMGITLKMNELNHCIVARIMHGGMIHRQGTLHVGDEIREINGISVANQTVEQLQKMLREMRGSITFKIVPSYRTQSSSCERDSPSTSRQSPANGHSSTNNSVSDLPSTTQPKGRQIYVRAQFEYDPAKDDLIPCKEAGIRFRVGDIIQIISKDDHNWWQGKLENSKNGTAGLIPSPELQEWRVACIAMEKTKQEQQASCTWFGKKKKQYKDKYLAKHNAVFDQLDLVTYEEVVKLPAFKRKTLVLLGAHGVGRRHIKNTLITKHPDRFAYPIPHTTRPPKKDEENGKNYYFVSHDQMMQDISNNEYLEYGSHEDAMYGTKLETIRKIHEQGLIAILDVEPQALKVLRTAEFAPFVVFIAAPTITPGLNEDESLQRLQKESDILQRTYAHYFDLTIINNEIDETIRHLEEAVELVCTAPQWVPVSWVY
The following applies: at 10 µM.

Assay [4] addresses Cyclin-dependent kinase 2 (Homo sapiens, UniProt P24941). The assay can be described thus: Selectivity interaction (ActivX KiNativ screen (kinase selectivity in THP-1 cell lysates)) EUB0000639a CDK2. In kind it is subcellular. The following applies: lysate, at 0.04 µM.
Assay [5] addresses Vascular endothelial growth factor receptor 3 (Homo sapiens, UniProt P35916). As to the kind of experiment: Selectivity interaction (Kinase panel (Invitrogen)) EUB0000639a FLT4. The following applies: at 200 nM.
For assay [6], the target named is T3, Serine/threonine-protein kinase greatwall (Homo sapiens) (UniProt Q96GX5).
T3 sequence (whole entry): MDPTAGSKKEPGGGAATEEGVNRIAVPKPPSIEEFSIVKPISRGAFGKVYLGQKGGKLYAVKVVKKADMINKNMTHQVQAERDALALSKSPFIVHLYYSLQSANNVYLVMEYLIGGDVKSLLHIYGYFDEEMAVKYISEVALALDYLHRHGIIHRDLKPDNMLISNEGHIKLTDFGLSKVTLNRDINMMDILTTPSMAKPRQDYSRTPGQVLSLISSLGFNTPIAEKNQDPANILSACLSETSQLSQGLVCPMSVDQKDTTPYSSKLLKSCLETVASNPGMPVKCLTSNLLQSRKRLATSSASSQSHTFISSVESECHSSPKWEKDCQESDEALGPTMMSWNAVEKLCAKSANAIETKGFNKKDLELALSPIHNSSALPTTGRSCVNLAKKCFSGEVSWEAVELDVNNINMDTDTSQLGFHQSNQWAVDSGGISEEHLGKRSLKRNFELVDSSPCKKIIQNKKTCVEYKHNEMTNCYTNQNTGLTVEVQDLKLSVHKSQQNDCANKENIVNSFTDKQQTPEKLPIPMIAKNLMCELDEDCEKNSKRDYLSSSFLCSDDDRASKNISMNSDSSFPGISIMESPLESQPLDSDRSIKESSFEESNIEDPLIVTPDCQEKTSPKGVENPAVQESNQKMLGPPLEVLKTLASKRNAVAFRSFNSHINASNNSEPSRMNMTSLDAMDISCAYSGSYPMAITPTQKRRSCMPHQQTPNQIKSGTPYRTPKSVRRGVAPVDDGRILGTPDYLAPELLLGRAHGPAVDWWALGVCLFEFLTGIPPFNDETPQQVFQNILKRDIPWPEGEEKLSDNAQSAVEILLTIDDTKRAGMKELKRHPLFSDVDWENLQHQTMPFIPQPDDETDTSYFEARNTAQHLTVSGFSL
As to the kind of experiment: Selectivity interaction (ActivX KiNativ screen (kinase selectivity in THP-1 cell lysates)) EUB0000639a MASTL. The following applies: lysate, at 5 µM. Type of assay: subcellular.

Assay [7] deals with Ribosomal protein S6 kinase alpha-5 (Homo sapiens) (UniProt O75582). As to the kind of experiment: Selectivity interaction (Kinase panel (DSF assay)) EUB0001559a RPS6KA5.
Ribosomal protein S6 kinase alpha-5 (Homo sapiens), sequence (O75582 whole entry, looked up): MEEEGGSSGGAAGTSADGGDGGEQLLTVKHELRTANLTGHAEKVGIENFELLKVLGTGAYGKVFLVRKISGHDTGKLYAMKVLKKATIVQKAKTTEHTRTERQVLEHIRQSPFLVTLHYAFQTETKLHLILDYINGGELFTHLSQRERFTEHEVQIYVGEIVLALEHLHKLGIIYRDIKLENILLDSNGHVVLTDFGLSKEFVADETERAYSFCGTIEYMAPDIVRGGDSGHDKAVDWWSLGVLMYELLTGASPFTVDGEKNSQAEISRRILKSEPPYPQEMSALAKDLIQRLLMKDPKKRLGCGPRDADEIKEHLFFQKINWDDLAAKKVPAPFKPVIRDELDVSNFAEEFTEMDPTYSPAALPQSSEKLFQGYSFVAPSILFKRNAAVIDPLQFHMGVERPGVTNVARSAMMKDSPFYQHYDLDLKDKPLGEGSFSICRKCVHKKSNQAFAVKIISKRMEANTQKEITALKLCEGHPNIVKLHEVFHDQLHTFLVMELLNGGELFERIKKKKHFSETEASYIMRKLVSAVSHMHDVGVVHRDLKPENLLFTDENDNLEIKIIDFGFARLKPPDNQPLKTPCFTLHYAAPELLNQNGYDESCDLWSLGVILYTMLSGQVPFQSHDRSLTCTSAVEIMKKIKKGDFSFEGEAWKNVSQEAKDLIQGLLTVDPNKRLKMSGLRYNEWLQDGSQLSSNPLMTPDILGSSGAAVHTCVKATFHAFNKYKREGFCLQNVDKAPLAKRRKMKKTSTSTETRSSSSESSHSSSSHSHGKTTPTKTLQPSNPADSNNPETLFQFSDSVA
For assay [8], the target named is Serine/threonine-protein kinase mTOR (Homo sapiens, UniProt P42345). As to the kind of experiment: Selectivity interaction (KinomeScan (DiscoverX)) EUB0000618a MTOR. The following applies: at 10 µM.
The next assay addresses CREB-binding protein (Homo sapiens, UniProt Q92793). The assay can be described thus: Selectivity interaction (Human bromodomain panel (DSF assay)) EUB0000233b CREBBP. For orientation: DSF heats the sample and reads unfolding from a dye or from intrinsic fluorescence.
Assay [9] addresses Platelet-derived growth factor receptor alpha (Homo sapiens, UniProt P16234). The assay can be described thus: Selectivity interaction (KinomeScan (DiscoverX)) EUB0001079a PDGFRA. The following applies: at 1 µM.

Vascular endothelial growth factor receptor 3, sequence (P35916 whole entry): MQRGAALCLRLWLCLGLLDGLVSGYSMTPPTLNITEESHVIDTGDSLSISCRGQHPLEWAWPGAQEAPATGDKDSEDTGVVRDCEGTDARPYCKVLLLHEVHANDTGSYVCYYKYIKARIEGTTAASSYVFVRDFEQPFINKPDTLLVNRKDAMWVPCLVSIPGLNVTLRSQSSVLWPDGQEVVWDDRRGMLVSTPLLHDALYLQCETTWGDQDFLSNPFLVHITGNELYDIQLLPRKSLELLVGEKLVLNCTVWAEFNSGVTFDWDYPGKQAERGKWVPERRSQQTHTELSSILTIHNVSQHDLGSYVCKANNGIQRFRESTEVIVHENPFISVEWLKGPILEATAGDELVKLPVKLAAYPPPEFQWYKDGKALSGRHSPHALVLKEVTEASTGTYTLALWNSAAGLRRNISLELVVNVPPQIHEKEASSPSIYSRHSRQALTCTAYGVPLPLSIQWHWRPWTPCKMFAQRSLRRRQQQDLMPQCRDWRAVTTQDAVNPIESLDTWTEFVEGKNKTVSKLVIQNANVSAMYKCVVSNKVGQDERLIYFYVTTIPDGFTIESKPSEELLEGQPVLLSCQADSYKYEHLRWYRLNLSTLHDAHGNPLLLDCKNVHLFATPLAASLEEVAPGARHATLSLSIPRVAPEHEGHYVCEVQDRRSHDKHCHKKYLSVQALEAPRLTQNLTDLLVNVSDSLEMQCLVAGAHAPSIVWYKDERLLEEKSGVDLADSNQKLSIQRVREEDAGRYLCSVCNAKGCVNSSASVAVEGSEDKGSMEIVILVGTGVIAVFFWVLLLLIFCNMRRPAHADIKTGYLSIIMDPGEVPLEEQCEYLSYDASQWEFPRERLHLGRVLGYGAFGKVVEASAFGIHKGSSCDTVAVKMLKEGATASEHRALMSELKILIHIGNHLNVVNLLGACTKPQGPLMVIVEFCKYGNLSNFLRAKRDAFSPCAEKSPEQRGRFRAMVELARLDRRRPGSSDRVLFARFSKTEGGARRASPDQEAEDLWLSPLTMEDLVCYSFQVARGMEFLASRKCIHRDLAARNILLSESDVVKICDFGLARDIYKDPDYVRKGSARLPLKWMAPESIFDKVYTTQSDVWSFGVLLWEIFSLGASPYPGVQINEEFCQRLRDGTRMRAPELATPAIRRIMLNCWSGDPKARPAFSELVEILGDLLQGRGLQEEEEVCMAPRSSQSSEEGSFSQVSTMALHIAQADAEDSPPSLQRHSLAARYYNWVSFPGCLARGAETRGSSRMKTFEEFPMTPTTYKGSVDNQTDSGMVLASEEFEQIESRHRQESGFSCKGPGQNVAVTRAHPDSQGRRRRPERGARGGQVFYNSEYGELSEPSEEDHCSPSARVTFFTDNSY
Platelet-derived growth factor receptor alpha, sequence (P16234 whole entry): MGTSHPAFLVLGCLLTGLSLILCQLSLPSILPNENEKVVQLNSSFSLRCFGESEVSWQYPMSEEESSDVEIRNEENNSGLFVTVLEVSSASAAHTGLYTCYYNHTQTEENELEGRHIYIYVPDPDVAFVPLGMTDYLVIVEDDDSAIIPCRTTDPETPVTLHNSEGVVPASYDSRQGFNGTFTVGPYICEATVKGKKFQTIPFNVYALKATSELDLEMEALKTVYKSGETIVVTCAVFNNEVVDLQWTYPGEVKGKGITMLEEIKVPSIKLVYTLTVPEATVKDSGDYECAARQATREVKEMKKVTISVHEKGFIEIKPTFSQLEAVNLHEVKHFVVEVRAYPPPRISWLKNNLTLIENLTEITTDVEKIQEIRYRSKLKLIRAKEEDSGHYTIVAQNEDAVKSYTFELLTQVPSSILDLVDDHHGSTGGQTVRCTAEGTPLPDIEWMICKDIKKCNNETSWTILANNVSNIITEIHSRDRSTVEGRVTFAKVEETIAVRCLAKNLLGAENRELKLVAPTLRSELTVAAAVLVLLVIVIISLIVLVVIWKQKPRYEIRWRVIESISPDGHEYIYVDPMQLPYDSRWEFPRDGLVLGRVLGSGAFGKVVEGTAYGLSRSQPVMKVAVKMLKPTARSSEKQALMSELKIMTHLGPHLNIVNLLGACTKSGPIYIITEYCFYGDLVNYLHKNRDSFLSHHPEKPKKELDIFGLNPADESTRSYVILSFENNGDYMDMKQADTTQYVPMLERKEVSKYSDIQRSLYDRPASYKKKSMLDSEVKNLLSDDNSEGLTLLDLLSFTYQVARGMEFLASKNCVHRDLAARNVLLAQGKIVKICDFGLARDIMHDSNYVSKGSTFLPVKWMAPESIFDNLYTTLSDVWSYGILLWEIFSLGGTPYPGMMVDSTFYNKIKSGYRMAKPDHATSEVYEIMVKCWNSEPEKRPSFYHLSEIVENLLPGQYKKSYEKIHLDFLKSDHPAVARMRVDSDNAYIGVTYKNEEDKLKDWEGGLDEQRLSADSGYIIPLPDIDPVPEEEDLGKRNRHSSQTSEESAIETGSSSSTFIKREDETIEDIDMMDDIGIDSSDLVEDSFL

`COCC(=O)NC/C=C/c1ccc2ncnc(Nc3ccc(Oc4ccc(C)nc4)c(C)c3)c2c1` [CP-724714]: in [1], the % of control was 93%.
In [2], `N#Cc1cccc(-c2c[nH]c3ncnc(N4CCOCC4)c23)c1` returned a % of control of 62%.
For `Cc1cc([C@@H](C)Nc2ccccc2C(=O)O)c2nc(N3CCOCC3)cc(=O)n2c1` [AZD-6482], in [3], the % of control stood at 92%.
With `CC[C@@H]1[C@H](F)C(=O)N[C@@H]1COc1nccc2cc(C(N)=O)c(OC)cc12` [ZIMLOVISERTIB], the % of inhibition in assay [4] was -1.2%; in assay [5], 0.591%; in assay [6], 77.2%.
Consider `CN(C(=O)c1cnn2cccnc12)c1cc2c(cc1N1CCOCC1)C(=O)N(C[C@@H](F)C(C)(C)O)C2`, for which the dTM in [7] was 0.3 K.
In turn, `O[C@H]1CC[C@H](Nc2ncc3nc(Nc4c(F)cc(F)cc4F)n([C@H]4CCOC4)c3n2)CC1` yielded a % of control in assay [8] of 68%.
As for `CN(C)CCCOc1ccc(-c2cc(NCCCn3cccn3)nc(S(C)(=O)=O)n2)cc1`, the dTM at CREB-binding protein is under 2 K.
As to `Nc1cnc(N2CCc3cc(S(=O)(=O)Nc4c(F)cc(Cl)cc4F)cc(N4CCCC4=O)c32)nc1` [TP-020n], the % of control in assay [9] was determined as 89%.
